In patent publication US11254686B1 (Corvus Pharmaceuticals, Inc., priority 2017, dated 2022):
pIC50: −log10 of the molar value.

What was measured:
[1] = target: adenosine A2B receptor (Homo sapiens (Human), UniProt P29275); experiment: Adenosine receptor activity assay (Table 1), A2B activity; type: biochemical; details: for Ratio: A2A activity to A2B activity (A2A/A2B); for pIC50: read-out: Ave A2B cAMP IC50
[2] = target: adenosine A2A receptor (Homo sapiens (Human), UniProt P29274); experiment: Adenosine receptor activity assay (Table 1), A2A activity; type: biochemical; details: read-out: Ave A2A cAMP IC50
Chain of adenosine A2A receptor (P29274 whole entry): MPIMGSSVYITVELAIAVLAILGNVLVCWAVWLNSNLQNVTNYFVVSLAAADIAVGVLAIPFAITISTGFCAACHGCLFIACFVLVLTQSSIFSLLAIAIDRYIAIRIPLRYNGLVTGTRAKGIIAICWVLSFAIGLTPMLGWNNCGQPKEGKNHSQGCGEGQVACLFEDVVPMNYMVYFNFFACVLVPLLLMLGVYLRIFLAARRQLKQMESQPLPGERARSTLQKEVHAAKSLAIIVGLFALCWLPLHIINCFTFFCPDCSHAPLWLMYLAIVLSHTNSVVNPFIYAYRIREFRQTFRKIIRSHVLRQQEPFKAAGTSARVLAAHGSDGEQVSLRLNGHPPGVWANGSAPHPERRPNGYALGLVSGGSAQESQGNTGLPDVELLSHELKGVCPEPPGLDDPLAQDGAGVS

Chain of adenosine A2B receptor (P29275 whole entry): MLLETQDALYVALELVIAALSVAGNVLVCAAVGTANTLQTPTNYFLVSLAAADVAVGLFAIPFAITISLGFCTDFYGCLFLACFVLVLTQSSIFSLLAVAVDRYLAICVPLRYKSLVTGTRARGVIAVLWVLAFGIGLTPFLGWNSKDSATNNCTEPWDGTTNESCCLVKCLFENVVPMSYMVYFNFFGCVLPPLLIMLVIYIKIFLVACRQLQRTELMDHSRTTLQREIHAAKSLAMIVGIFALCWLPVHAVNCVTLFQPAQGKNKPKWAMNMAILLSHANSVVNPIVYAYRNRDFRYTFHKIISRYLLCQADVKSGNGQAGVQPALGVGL

Compound | Ratio [1] | pIC50 [1] | pIC50 [2]
C[C@H](Nc1nc(C(=O)N2CCC(C(=O)OC(C)(C)C)C2)c2sccc2n1)c1cncc(F)c1 (stereo partly drawn) [Example Z354, tert-Butyl 1-(2-(((S)-1-(5-fluoropyridin-3-yl)ethyl)amino)thieno[3,2-d]pyrimidine-4-carbonyl)pyrrolidine-3-carboxylate] | 6.35 | 7.30 to 8.00 | 6.30 to 7.00
C[C@H](Nc1nc(C(=O)N2CCC(C(=O)OC(C)(C)C)C2)c2sccc2n1)c1ccccn1 (stereo partly drawn) [Example Z355, tert-Butyl 1-(2-(((S)-1-(pyridin-2-yl)ethyl)amino)thieno[3,2-d]pyrimidine-4-carbonyl)pyrrolidine-3-carboxylate] | 1.96 | 6.30 to 7.00 | < 6.30
C[C@H](Nc1nc(C(=O)NCCN2CCCC2)c2sccc2n1)c1ccccn1 [Example Z356, (S)-2-((1-(Pyridin-2-yl)ethyl)amino)-N-(2-(pyrrolidin-1-yl)ethyl)thieno[3,2-d]pyrimidine-4-carboxamide] | 3.31 | < 6.30 | < 6.30
C[C@H](Nc1nc(C(=O)NCCN2CCCC2)c2sccc2n1)c1cncc(F)c1 [Example Z357, (S)-2-((1-(5-Fluoropyridin-3-yl)ethyl)amino)-N-(2-(pyrrolidin-1-yl)ethyl)thieno[3,2-d]pyrimidine-4-carboxamide] | 3.03 | < 6.30 | < 6.30
CNC1CN(C(=O)c2nc(NCc3cncc(F)c3)nc3ccsc23)C1 [Example Z358, (2-(((5-Fluoropyridin-3-yl)methyl)amino)thieno[3,2-d]pyrimidin-4-yl)(3-(methylamino)azetidin-1-yl)methanone] | 69.69 | 6.30 to 7.00 | < 6.30
O=C(c1nc(NCCc2ccc(O)cc2)nc2ccsc12)N1CCCC1 [Example Z359, (2-((4-Hydroxyphenethyl)amino)thieno[3,2-d]pyrimidin-4-yl)(pyrrolidin-1-yl)methanone] | 2.57 | 6.30 to 7.00 | 6.30 to 7.00
N[C@H]1CCN(C(=O)c2nc(NCc3cncc(F)c3)nc3ccsc23)C1 [Example Z360, (S)-(3-Aminopyrrolidin-1-yl)(2-(((5-fluoropyridin-3-yl)methyl)amino)thieno[3,2-d]pyrimidin-4-yl)methanone] | 72.24 | 6.30 to 7.00 | < 6.30
N[C@@H]1CCN(C(=O)c2nc(NCc3cncc(F)c3)nc3ccsc23)C1 [Example Z361, (R)-(3-Aminopyrrolidin-1-yl)(2-(((5-fluoropyridin-3-yl)methyl)amino)thieno[3,2-d]pyrimidin-4-yl)methanone] | 28.33 | 6.30 to 7.00 | < 6.30
C[C@H](Nc1nc(C(=O)N2CC[C@H](N)C2)c2sccc2n1)c1cncc(F)c1 [Example Z362, ((S)-3-Aminopyrrolidin-1-yl)(2-(((S)-1-(5-fluoropyridin-3-yl)ethyl)amino)thieno[3,2-d]pyrimidin-4-yl)methanone] | 95.57 | 7.30 to 8.00 | < 6.30
C[C@H](Nc1nc(C(=O)N2CC[C@H](N)C2)c2sccc2n1)c1ccccn1 [Example Z363, ((S)-3-Aminopyrrolidin-1-yl)(2-(((S)-1-(pyridin-2-yl)ethyl)amino)thieno[3,2-d]pyrimidin-4-yl)methanone] | 23.53 | 6.30 to 7.00 | < 6.30
C[C@H](Nc1nc(C(=O)N2CC[C@@H](N)C2)c2sccc2n1)c1ccccn1 [Example Z364, ((R)-3-Aminopyrrolidin-1-yl)(2-(((S)-1-(pyridin-2-yl)ethyl)amino)thieno[3,2-d]pyrimidin-4-yl)methanone] | 11.16 | 6.30 to 7.00 | < 6.30
C[C@H](Nc1nc(C(=O)NCCC2CCN(C(=O)OC(C)(C)C)C2)c2sccc2n1)c1cncc(F)c1 (stereo partly drawn) [Example Z365, tert-Butyl 3-(2-(2-(((S)-1-(5-fluoropyridin-3-yl)ethyl)amino)thieno[3,2-d]pyrimidine-4-carboxamido)ethyl)pyrrolidine-1-carboxylate] | 2.19 | 7.30 to 8.00 | 7.00 to 7.30
C[C@H](Nc1nc(C(=O)N2CC[C@@H](N)C2)c2sccc2n1)c1cccnc1 [Example Z366, ((R)-3-Aminopyrrolidin-1-yl)(2-(((S)-1-(pyridin-3-yl)ethyl)amino)thieno[3,2-d]pyrimidin-4-yl)methanone] | 1.86 | < 6.30 | < 6.30
C[C@H](Nc1nc(C(=O)N2CC[C@H](N)C2)c2sccc2n1)c1cccnc1 [Example Z367, ((S)-3-Aminopyrrolidin-1-yl)(2-(((S)-1-(pyridin-3-yl)ethyl)amino)thieno[3,2-d]pyrimidin-4-yl)methanone] | 5.78 | < 6.30 | < 6.30
O=C(NC[C@H]1CCCN1)c1nc(NCc2cncc(F)c2)nc2ccsc12 [Example Z369, (R)-2-(((5-Fluoropyridin-3-yl)methyl)amino)-N-(pyrrolidin-2-ylmethyl)thieno[3,2-d]pyrimidine-4-carboxamide] | 2.26 | < 6.30 | < 6.30
C[C@H](Nc1nc(C(=O)NC[C@H]2CCCN2)c2sccc2n1)c1ccccn1 [Example Z370, 2-(((S)-1-(pyridin-2-yl)ethyl)amino)-N—(((R)-pyrrolidin-2-yl)methyl)thieno[3,2-d]pyrimidine-4-carboxamide] | 1.81 | < 6.30 | < 6.30
N[C@H]1CCN(C(=O)c2nc(NCc3cc(F)cc(F)c3)nc3ccsc23)C1 [Example Z371, (S)-(3-Aminopyrrolidin-1-yl)(2-((3,5-difluorobenzyl)amino)thieno[3,2-d]pyrimidin-4-yl)methanone] | 11.56 | < 6.30 | < 6.30
Cc1cc2nc(N[C@@H](C)c3cncc(F)c3)nc(C(=O)NCCN3CCOCC3)c2s1 [Example Z372, (S)-2-((1-(5-Fluoropyridin-3-yl)ethyl)amino)-6-methyl-N-(2-morpholinoethyl)thieno[3,2-d]pyrimidine-4-carboxamide] | 33.10 | 7.00 to 7.30 | < 6.30
Cc1cc2nc(N[C@@H](C)c3cccnc3)nc(C(=O)NCC3CCOCC3)c2s1 [Example Z375, (S)-6-Methyl-2-((1-(pyridin-3-yl)ethyl)amino)-N-((tetrahydro-2H-pyran-4-yl)methyl)thieno[3,2-d]pyrimidine-4-carboxamide] | 7.89 | 7.30 to 8.00 | 6.30 to 7.00
Cc1cc2nc(N[C@@H](C)c3cccnc3)nc(C(=O)NCC3CCNCC3)c2s1 [Example Z377, (S)-6-Methyl-N-(piperidin-4-ylmethyl)-2-((1-(pyridin-3-yl)ethyl)amino)thieno[3,2-d]pyrimidine-4-carboxamide] | 39.59 | 6.30 to 7.00 | < 6.30
Cc1cc2nc(N[C@@H](C)c3cccnc3)nc(C(=O)NCCN3CCOCC3)c2s1 [Example Z378, (S)-6-Methyl-N-(2-morpholinoethyl)-2-((1-(pyridin-3-yl)ethyl)amino)thieno[3,2-d]pyrimidine-4-carboxamide] | 15.93 | 6.30 to 7.00 | < 6.30
C[C@H](Nc1nc(C(=O)N2CCC(C(=O)O)C2)c2sccc2n1)c1cncc(F)c1 (stereo partly drawn) [Example Z379, 1-(2-(((S)-1-(5-Fluoropyridin-3-yl)ethyl)amino)thieno[3,2-d]pyrimidine-4-carbonyl)pyrrolidine-3-carboxylic acid] | 68.03 | 6.30 to 7.00 | < 6.30
C[C@H](Nc1nc(C(=O)N2CCC(C(=O)O)C2)c2sccc2n1)c1ccccn1 (stereo partly drawn) [Example Z380, 1-(2-(((S)-1-(Pyridin-2-yl)ethyl)amino)thieno[3,2-d]pyrimidine-4-carbonyl)pyrrolidine-3-carboxylic acid] | 13.21 | < 6.30 | < 6.30
C[C@H](Nc1nc(C(=O)N2CCNC2)c2sccc2n1)c1cncc(F)c1 [Example Z381, (S)-(2-((1-(5-Fluoropyridin-3-yl)ethyl)amino)thieno[3,2-d]pyrimidin-4-yl)(imidazolidin-1-yl)methanone] | 47.20 | 7.30 to 8.00 | < 6.30
C[C@H](Nc1nc(C(=O)NCCc2ccc(Cl)cc2)c2sccc2n1)c1cncc(F)c1 [Example Z385, (S)—N-(4-Chlorophenethyl)-2-((1-(5-fluoropyridin-3-yl)ethyl)amino)thieno[3,2-d]pyrimidine-4-carboxamide] | 7.44 | 7.00 to 7.30 | < 6.30
Cc1cc2nc(N[C@@H](C)c3cccnc3)nc(C(=O)NC[C@@H]3CCOC3)c2s1 [Example Z387, 6-Methyl-2-(((S)-1-(pyridin-3-yl)ethyl)amino)-N—(((S)-tetrahydrofuran-3-yl)methyl)thieno[3,2-d]pyrimidine-4-carboxamide] | 20.10 | 7.00 to 7.30 | < 6.30
Cc1cc2nc(N[C@@H](C)c3cccnc3)nc(C(=O)NC[C@H]3CCOC3)c2s1 [Example Z388, 6-Methyl-2-(((S)-1-(pyridin-3-yl)ethyl)amino)-N—(((R)-tetrahydrofuran-3-yl)methyl)thieno[3,2-d]pyrimidine-4-carboxamide] | 10.69 | 7.00 to 7.30 | < 6.30
C[C@H](NC(=O)c1nc(N[C@@H](C)c2ccccc2)nc2ccsc12)c1ccccc1 [Example Z394, N—((S)-1-Phenylethyl)-2-(((S)-1-phenylethyl)amino)thieno[3,2-d]pyrimidine-4-carboxamide] | 0.87 | 6.30 to 7.00 | 6.30 to 7.00
C[C@H](Nc1nc(C(=O)N[C@@H]2CC[C@@H](O)C2)c2sccc2n1)c1cncc(F)c1 [Example Z395, 2-(((S)-1-(5-Fluoropyridin-3-yl)ethyl)amino)-N-((1R,3R)-3-hydroxycyclopentyl)thieno[3,2-d]pyrimidine-4-carboxamide] | 32.64 | 7.30 to 8.00 | 6.30 to 7.00
